Laboratory results taken from the NIST ThermoML archive (doi:10.1016/j.jct.2013.12.019).

Experiment: mn = molality of the nth substance listed, in mol/kg
Settings: 101 kPa, Liquid, Alternating current cell with electrodes

CCCCCCCCCCCC[N+](C)(C)C.[Br-] [dodecyltrimethylammonium bromide] + O
electrical conductivity [S/m]
Settings | 293.15 K | 298.15 K | 303.15 K | 308.15 K | 313.15 K
m1 = 0.0015 | 0.014 | 0.0143 | 0.0144 | 0.0153 | 0.0169
m1 = 0.003 | 0.027 | 0.0273 | 0.0278 | 0.0286 | 0.032
m1 = 0.0045 | 0.0397 | 0.0412 | 0.0413 | 0.042 | 0.0469
m1 = 0.006 | 0.0524 | 0.0535 | 0.055 | 0.0551 | 0.061
m1 = 0.0075 | 0.0645 | 0.0669 | 0.0675 | 0.068 | 0.0759
m1 = 0.009 | 0.0763 | 0.0784 | 0.0798 | 0.0808 | 0.0895
m1 = 0.0105 | 0.088 | 0.091 | 0.0908 | 0.0927 | 0.103
m1 = 0.012 | 0.0995 | 0.102 | 0.103 | 0.105 | 0.116
m1 = 0.0135 | 0.111 | 0.113 | 0.114 | 0.117 | 0.129
m1 = 0.015 | 0.121 | 0.123 | 0.126 | 0.128 | 0.137
m1 = 0.0165 | 0.13 | 0.132 | 0.132 | 0.134 | 0.144
m1 = 0.018 | 0.136 | 0.137 | 0.137 | 0.139 | 0.149
m1 = 0.0195 | 0.139 | 0.14 | 0.141 | 0.142 | 0.152
m1 = 0.021 | 0.142 | 0.142 | 0.143 | 0.145 | 0.156
m1 = 0.0225 | 0.145 | 0.145 | 0.146 | 0.148 | 0.16
m1 = 0.024 | 0.147 | 0.148 | 0.149 | 0.151 | 0.162
m1 = 0.0255 | 0.15 | 0.151 | 0.151 | 0.154 | 0.165
m1 = 0.027 | 0.153 | 0.154 | 0.154 | 0.158 | 0.168
m1 = 0.0285 | 0.156 | 0.156 | 0.156 | 0.16 | 0.171
m1 = 0.03 | 0.159 | 0.159 | 0.16 | 0.163 | 0.173
